Measurements from patent publication US20120035356A1, “Hydroxycarboxylic Acids and Salts” (priority 2006, published 2012).
Like-named read-outs stand apart in the source and are kept apart here.

How the values were obtained:
[1] = cited from earlier work
[2] = Corrosion test NACE TM0169-95 modified by PNS, steel coupons in 3% NaCl solution; parameters: Percent Effectiveness: scale not given: direction of the effect not stated beside the values; settings: Table 1; for Corrosion rate MPY: 72 h; for Percent Effectiveness: NaCl control 100%, water 0%, lower is better, 30% or less acceptable (PNS); for Corrected corrosion rate MPY^1: distilled water MPY subtracted
Method: Corrosion tests were performed according to the National Association of Corrosion Engineers (NACE) Standard TM0169-95 modified by the Pacific Northwest Snowfighters (PNS) (NACE TM0169-95).
The test procedure was modified to use 30 mL of a 3% solution of inhibitor per square inch of total coupon surface area. Stamped and numbered steel TSI coupons which met the ASTM F436 Type 1 requirement with a Rockwell hardness of C 38-45 were used for each corrosion test. Approximate coupon dimensions are 1.37 in. outer diameter, 0.60 in. inner diameter, and 0.10 in. thickness with a density of 7.85 grams per cubic centimeter. Coupons were placed in a sealed container on a rock tumbler with a non-abrasive cleanser for 30 minutes to remove surface grease and impurities. Coupons were wiped with acetone to remove any additional grease, rinsed with deionized water, and then acid etched with an 18.5% HCl solution for approximately 3 minutes. The coupons were rinsed with tap water, rinsed with deionized water, patted dry and placed in chloroform for 15 minutes. The coupons were removed from chloroform and allowed to air dry in a ventilated hood for 1 hour. Each coupon was then weighed to the nearest 0.1 mg. at least two times to ensure a consistent weight.
Distilled water was used to prepare each solution and control standard. Sodium chloride was used as the salt standard. A 3% solution of NaCl (EMD, analyzed reagent grade, 9.6 g) in distilled water (310.4 g) was prepared as a salt standard (w/v). Each test solution was prepared with 3% NaCl, 310.4 g distilled water, and a corrosion inhibitor. Two NaCl salt solutions containing each inhibitor were prepared at 3% and 1.5% inhibitor concentration (by weight of salt, 288 mg and 144 mg, respectively). Approximately 300 mL of each solution in distilled water was transferred to a clean 500 mL Erlenmeyer flask equipped with a rubber stopper which had been drilled to allow a thin line attached to a plastic rod to run through it. The pH of each solution was measured and recorded. Aqueous 5% sodium hydroxide was carefully added (1-2 drops) until a basic pH was established for each test solution. The pH of the NaCl and H2O control solutions was not altered. Three coupons were attached to a plastic bar suspended within each flask through the stopper hole. A timed device raised and lowered the test coupons so they were immersed in the test solution for 10 minutes of each hour for a 72 hour period. Tests were conducted at room temperature.
After the 72 h. test period, the coupons were quickly removed from solution, rinsed under tap water and vigorously rubbed to remove any surface corrosion material. The coupons were then placed in shallow evaporating dishes containing a cleaning solution of concentrated hydrochloric acid, stannous chloride (50 g/liter), and antimony chloride (20 g/liter) for 15 minutes. The coupons were removed from the acid solution, rinsed vigorously under tap water, and returned to the cleaning solution for an additional 15 minutes. The coupons were again removed from the acid solution, rinsed under tap water, rinsed under deionized water, patted dry, and placed in a vessel containing chloroform for 10 minutes. The coupons were removed from the chloroform and allowed to air dry under a ventilated hood for 1 hour before being weighed to the nearest 0.1 mg. Each coupon was weighed twice to ensure a true final weight. Corrosion rate in mils per year (MPY) was calculated from the measured weight loss of each coupon using the following equation: […]
The corrosion value for the control solution of distilled H2O was also calculated. The MPY value of the distilled water was subtracted from the MPY value of each sample solution containing 3% NaCl to provide a corrected MPY value, which is noted as MPY′.

[3] = Water solubility; format: physicochemical; settings: at the higher pH
[4] = 1.5 weight % inhibitor in 3% NaCl, room temperature, >pH 8 except sodium D-gluconate (pH 6.1)
[5] = 1.5 weight % inhibitor in 3% NaCl
[6] = 3.0 weight % inhibitor in 3% NaCl, >pH 8 except sodium D-gluconate (pH 6.1) and commercial liquid gluconate product (pH 3.2)
[7] = 3.0 weight % inhibitor in 3% NaCl

SMILES | water solubility (in words) [1] | Corrosion rate MPY [2, 4] | Percent Effectiveness [2, 5] | Corrected corrosion rate MPY^1 [2, 5] | Corrosion rate MPY [2, 6] | Percent Effectiveness [2, 7] | Corrected corrosion rate MPY^1 [2, 7] | water solubility [3] | also measured
O=C([O-])[C@@H](O)[C@@H](O)[C@H](O)[C@@H](O)C(=O)[O-].[K+].[K+] [dipotassium D-glucarate hydrate, dipotassium D-glucarate] | readily soluble in water |  |  |  |  |  |  |  | 
O=C([O-])[C@@H](O)[C@@H](O)[C@H](O)[C@@H](O)C(=O)[O-].[Ca+2] [calcium D-glucarate] | very insoluble in water |  |  |  |  |  |  |  | 
O=C(O)[C@@H](O)[C@@H](O)[C@H](O)[C@@H](O)C(=O)[O-].[K+] [Sample III, monopotassium D-glucarate] |  |  |  |  |  |  |  |  | Water reduction (% of control) (Type A (water reducing) trial, admixture dose 2.4-2.5 oz/cwt): 5.04 % of control; Compressive Strength (% of control) (Type A trial, 7 days): (125%) % of control; Water reduction (% of control) (Type D (water reducing/set retarding) trial, admixture dose 2.9-5.0 oz/cwt): 5.04 % of control; Compressive Strength (% of control) (Type D trial, 7 days): (117%) % of control; Compressive Strength (% of control) (Type D trial, 28 days): (118%) % of control; water solubility [1]: about 10%
O=C([O-])[C@H](O)[C@@H](O)[C@H](O)[C@H](O)CO.[Na+] [sodium D-gluconate, reference compound] |  | 24.596 MPY | 36.98% | 20.313 MPY | 22.786 MPY | 33.45% | 18.503 MPY | ca. 60% | Percent Effectiveness ([2]; 3.0 weight % inhibitor in 3% NaCl, listed as gluconate): > 30%
O=C([O-])[C@@H](O)[C@@H](O)[C@H](O)[C@@H](O)C(=O)[O-].[K+].[Na+] [sodium potassium D-glucarate] | readily soluble in water | 23.726 MPY | 35.28% | 19.443 MPY | 20.939 MPY | 29.84% | 16.656 MPY | ca. 70% | Percent Effectiveness ([2]; 3.0 weight % inhibitor in 3% NaCl, listed as glucarate): ~30%
